According to patent publication US12502369B2, “Methods of cancer treatment” (K-GEN, INC., priority 2015, dated 2025):
Like-named read-outs stand apart in the source and are kept apart here.

Legend:
[1] = tested on: H441; assay: Proliferation assay (CellTiter Glo), H441; type: cell-based; conditions: for Top inhibition %: 96 hours
Experimental: (§1) Briefly, cells at a density of 1,000-10,000 cells/well were seeded in 96-well plates and incubated at 37′C for 24 hours. A series of 9 different concentrations of compound stocks (500×) were created by 3-fold serial dilution in DMSO. These compounds were further diluted in culture media and then added to cells so that the final DMSO concentration was 0.2%. After 96 hours of incubation, 50 μL of CellTiter Glo reagent (Promega) was added to each well and luminescence was measured after 10 minutes using EnVision (PerkinElmer). […] The dose range for most compounds was 4.6 nM-30 μM. The dose ranges for some compounds were adjusted downward to 0.46 nM-3 μM or 0.08 nM-0.5 μM or 0.03 nM-0.2 μM. Luminescence from cells treated with […] alone was set as Max and % of inhibition was calculated as follows: Inhibition %=(Max-Sample value)/Max*100. Data was analyzed using XL-fit software (ID Business Solutions Ltd.) and EC50, relative EC50, and % of top inhibition were calculated. The results are shown in Tables 3-6 for pancreatic cancer, lung cancer, colon/gastric cancer, and leukemia cell lines.

[2] = tested on: PKC isoforms in A549 cells; assay: Activation of PKC isoforms, Western blot, A549; type: cell-based; conditions: 30 minutes; for P-PKC (pan)(βII Ser660) and P-PKCα/β (Thr638/641): high levels already in DMSO treated cells
Experimental: (§2) A549 lung cancer cells (˜3 million cells) were seeded in 10 cm tissue culture dishes and grown overnight. Cells were then treated with different drugs at indicated concentrations (see FIG. 9A for global activation of PKC and FIG. 10 for activation of PKC isoforms) for 30 minutes. Panc2.13 pancreatic cells (˜5 million) were seeded and treated as in FIG. 9B for global activation of PKC. Cell lysate preparation, protein quantitation, SDS-PAGE, and Western blotting procedures are described in Example 2. Primary antibodies used in this Example and later Examples of this application are shown in Table A. Western blot membranes were scanned using Odyssey® Imaging System (Licor Biosciences) if secondary antibodies Anti-mouse IgG Dylight 800 conjugate or Anti-rabbit IgG DyLight 680 conjugate (1:10000)(Cell signaling or similar IR 2nd antibodies from different vendors) were used. Alternatively, Imagequant LAS4000 (GE) was used to scan membranes if secondary antibodies Anti-mouse IgG HRP conjugate or Anti-rabbit IgG HRP conjugate (dilutions from 1:2000-1:10000) were used.

[3] = tested on: MiaPaCa-2; assay: Proliferation assay (CellTiter Glo), MiaPaCa-2; type: cell-based; conditions: for Top inhibition %: 96 hours
Experimental: as §1, with “calculated.” for “calculated. The results are shown in Tables 3-6 for pancreatic cancer, lung cancer, colon/gastric cancer, and leukemia cell lines.”

[4] = tested on: A549 cells; assay: Soft agar colony formation assay; type: cell-based; conditions: 7-10 days, 9-point dilution series
Experimental: To prepare the base agar layer (0.6%), melted 1.2% agar solution was mixed 1:1 (v/v) with 2×DMEM/20% FBS medium in a tube by inverting several times and 50 μL of the mixture was immediately transferred to a well in a 96-well flat-bottom microplate. The plate was placed at 4° C. for 30 minutes to allow the base agar layer to solidify. Then, the cell agar layer (agar 0.4%) was prepared by transferring 75 μL of the cell and agar mixture containing 1:1:1 (v/v/v) of 1.2% agar solution, 2×DMEM/20% FBS and cell suspension (0.4-4×10^5/mL) to each well of the plates so that each well contained 1000-10000 cells per well. The plates were placed at 4° C. for 15 minutes and then 75 μL of media were added to each well. After incubating the plates overnight in a CO2 incubator, 50 μL of media with or without 5× final concentrations of compounds were added to each well. Each compound was tested in 9-point 3-fold dilution series. The plates were incubated for 7-10 days at 37° C. At the end of incubation period, 28 μL of Calcein AM solution (5 μM) was added to the center of each well. The plates were incubated at 37° C. for 45 minutes before scanning on Acumen (TTP Labtech). Each compound was tested in triplicates. Data was analyzed and compound EC50s were calculated using GraphPad Prism 5.

[5] = tested on: Panc2.03; assay: Proliferation assay (CellTiter Glo), Panc2.03; type: cell-based; conditions: for Top inhibition %: 96 hours
Experimental: as §1

[6] = tested on: RPMI8226; assay: Proliferation assay (CellTiter Glo), RPMI8226; type: cell-based; conditions: RPMI8226 (K-ras: G12A)
Experimental: as §1, with “calculated.” for “calculated. The results are shown in Tables 3-6 for pancreatic cancer, lung cancer, colon/gastric cancer, and leukemia cell lines.”
Other cancer cell lines having wild-type K-ras status and K-ras mutation at G12 were also screened using the PKC activator compounds. […] K-104 was tested in a range of 0.03 nM-0.2 μM. […] The dose ranges were adjusted downward to 0.46 nM-3 μM for K-102 and 0.08 nM-0.5 μM for K-103 for some cell lines.

[7] = tested on: PKC substrates in A549 cells; assay: Global PKC activation (phosphorylated PKC substrates), Western blot, A549; type: cell-based; conditions: 30 minutes, Phospho-PKC substrate Motif MultiMab
Experimental: as §2

[8] = tested on: PKC substrates in Panc2.13 cells; assay: Global PKC activation (phosphorylated PKC substrates), Western blot, Panc2.13; type: cell-based; conditions: Phospho-(Ser) PKC Substrate Antibody
Experimental: as §2

[9] = tested on: H358; assay: Proliferation assay (CellTiter Glo), H358; type: cell-based; conditions: for Top inhibition %: 96 hours
Experimental: as §1

[10] = tested on: CCRF-CEM; assay: Proliferation assay (CellTiter Glo), CCRF-CEM; type: cell-based; conditions: for Top inhibition %: 96 hours
Experimental: as §1

[11] = tested on: MBT-2; assay: Anti-cell proliferative effects, MBT-2; type: cell-based, mouse
[12] = absolute EC50, 96 hours, read-out: Ab EC50
[13] = relative EC50, 96 hours, read-out: Re EC50

SMILES	Top inhibition % [1]	P-PKCδ (Thr505) and P-PKCδ/θ (Ser643/676) [2]	Top inhibition % [3]	number of colonies formed in soft agar [4]	Top inhibition % [5]	Top inhibition % [6]	phosphorylation of PKC substrates (global activation of PKC) [7]	phosphorylation of PKC substrates (global activation of PKC) [8]	Top inhibition % [9]	Top inhibition % [10]	P-PKC (pan)(βII Ser660) and P-PKCα/β (Thr638/641) [2]	sensitivity to anti-cell proliferative effects [11]	further results
CC(=O)OCC1=C[C@H]2[C@@H]3C(C)(C)[C@]3(OC(C)=O)C[C@@H](C)[C@]2(O)C2C=C(C)C(=O)[C@@]2(O)C1 (stereo partly drawn) [Compound K-101E]	49.1%	no effects	61.4%	reduced the number of colonies	36.5%	32.25%	nearly no effect	nearly no effect	47.9%	34.3%			EC50 [1, 12]: > 30 µM; EC50 [1, 13]: 2.61 µM; EC50 [3, 12]: 1.88 µM; EC50 [3, 13]: 0.86 µM; EC50 [5, 12]: > 30 µM; EC50 [5, 13]: 1.92 µM; EC50 [9, 12]: > 30 µM; EC50 [9, 13]: 1.25 µM; EC50 [10, 12]: > 30 µM; EC50 [10, 13]: 0.27 µM
CC(=O)O[C@@]12C[C@@H](C)[C@]3(O)C4C=C(C)C(=O)[C@@]4(O)CC(CO)=C[C@H]3[C@@H]1C2(C)C (stereo partly drawn) [Compound K-101A, Prostratin]	42.1%	dose-dependent increases	74.4%	reduced the number of colonies	27.0%	32.39%	induced dose-dependent phosphorylation	induced dose-dependent phosphorylation	56.4%	35.9%	no further increases	sensitive	EC50 ([1]; Homo sapiens, NCI-H441, absolute EC50, 96 hours, read-out: Ab EC50): > 30 µM; EC50 ([1]; Homo sapiens, NCI-H441, relative EC50, 96 hours, read-out: Re EC50): 0.32 µM; EC50 ([3]; Homo sapiens, MIA PaCa-2, absolute EC50, 96 hours, read-out: Ab EC50): 0.3 µM; EC50 ([3]; Homo sapiens, MIA PaCa-2, relative EC50, 96 hours, read-out: Re EC50): 0.18 µM; EC50 ([5]; Homo sapiens, Panc203, absolute EC50, 96 hours, read-out: Ab EC50): > 30 µM; EC50 ([5]; Homo sapiens, Panc203, relative EC50, 96 hours, read-out: Re EC50): 0.12 µM; EC50 ([9]; Homo sapiens, NCI-H358, absolute EC50, 96 hours, read-out: Ab EC50): 4.9 µM; EC50 ([9]; Homo sapiens, NCI-H358, relative EC50, 96 hours, read-out: Re EC50): 0.16 µM; EC50 ([10]; Homo sapiens, absolute EC50, 96 hours, read-out: Ab EC50): > 30 µM; EC50 ([10]; Homo sapiens, relative EC50, 96 hours, read-out: Re EC50): 0.051 µM
C/C=C(/C)C(=O)O[C@H]1C(C)=C[C@]23C(=O)[C@@H](C=C(CO)[C@@H](O)[C@]12O)[C@H]1[C@@H](C[C@H]3C)C1(C)C [Compound K-102, Ingenol-3-angelate, reference compound]		dose-dependent increases		reduced the number of colonies			induced dose-dependent phosphorylation	induced dose-dependent phosphorylation			no further increases	sensitive	
